Data: US8003666B2, “Hydrate for medical purposes” (priority 2006, dated 2011)
Values after ≈ are worked out from the molar mass of the structure shown.

Tested on: Mycobacterium tuberculosis (bacteria resistant to quinolone)
Experiment: microbe, parasite or virus in culture
Type: cell-based

Compound | MIC (strain 1 (QR-3)) | MIC (strain 2 (QR-6)) | MIC (strain 3 (QR-1)) | MIC (strain 4 (QR-9)) | MIC (strain MDR 1) | MIC (strain MDR 3) | MIC (strain MDR 4) | MIC (strain MDR 5) | MIC (strain MDR 7) | MIC (strain MDR 9) | MIC (strain MDR 12) | MIC (strain s 1)
COc1c(N2CC3(CC3)[C@](C)(N)C2)c(F)cc2c(=O)c(C(=O)O)cn([C@@H]3C[C@@H]3F)c12 [Hemihydrate, 7-[(7S)-7-Amino-7-methyl-5-azaspiro[2.4]heptan-5-yl]-6-fluoro-1-[(1R,2S)-2-fluorocyclopropyl]-8-methoxy-1,4-dihydro-4-oxoquinoline-3-carboxylic acid hemihydrate] | 0.125 µg/mL | 0.5 µg/mL | 0.25 µg/mL | 0.25 µg/mL | 0.125 µg/mL | 0.125 µg/mL | 0.25 µg/mL | 0.5 µg/mL | 0.125 µg/mL | 0.125 µg/mL | 0.125 µg/mL | 1 µg/mL
CO[C@H]1/C=C/O[C@@]2(C)Oc3c(C)c(O)c4c(O)c(c(/C=N/N5CCN(C)CC5)c(O)c4c3C2=O)NC(=O)/C(C)=C\C=C\[C@H](C)[C@H](O)[C@@H](C)[C@@H](O)[C@@H](C)[C@H](OC(C)=O)[C@@H]1C [RFP, rifampicin] | > 128 µg/mL | > 128 µg/mL | 128 µg/mL (≈ 156 µM) | > 128 µg/mL | 16 µg/mL (≈ 19.4 µM) | 128 µg/mL (≈ 156 µM) | 64 µg/mL (≈ 77.8 µM) | 32 µg/mL (≈ 38.9 µM) | > 128 µg/mL | 128 µg/mL (≈ 156 µM) | 128 µg/mL (≈ 156 µM) | 16 µg/mL (≈ 19.4 µM)
